Earlier results on 1 compound are cited in patent US10500240B2, “Use of terminalia chebula extract for treatment of osteoarthritis” (Natreon, Inc., priority 2013, dated 2019).

Each structure is given as a SMILES string.

One may read the IC50 as the concentration that inhibits the measured activity by half.

Data set [1] has as its system HepG2 cells. The settings on record: with doxorubicin.
Data set [2] deals with COX-1.
In data set [3] the test system is 5-LOX.
In data set [4] the target is maltase. The settings on record: reversible and non-competitive inhibitor; read-out: K(i) value, maltase.

Consider `O=C(O)CC1C(=O)OC2C3COC(=O)c4cc(O)c(O)c(O)c4-c4c(cc(O)c(O)c4O)C(=O)OC2C(OC(=O)c2cc(O)c(O)c4c2C1C(O)C(=O)O4)C(OC(=O)c1cc(O)c(O)c(O)c1)O3` [Chebulagic acid, beta-1-O-galloyl-2,4-chebuloyl-3,6-(R)-hexahydroxydiphenoyl-D-glucose], for which the “enhanced the cytotoxicity of doxorubicin in HepG2 cells” value in data set [1] is on record as 20 fold. The IC50 in data set [2] is 15 ± 0.288 µM; in data set [3], 2.1 ± 0.057 µM. Besides, the Ki in data set [4] was 6.6 µM.
